Test results: BigSolDB 2.1

CC1(C)COP(=O)(C(C)(O)c2ccccc2)OC1 (configuration not stated)
Settings | solubility (mole fraction)
in 1,2-dichloroethane, 278.35 K | 0.00107
in 1,2-dichloroethane, 283.25 K | 0.00117
in 1,2-dichloroethane, 288.45 K | 0.00154
in 1,2-dichloroethane, 293.35 K | 0.00171
in 1,2-dichloroethane, 298.25 K | 0.00218
in 1,2-dichloroethane, 303.15 K | 0.00258
in 1,2-dichloroethane, 308.25 K | 0.00291
in 1,2-dichloroethane, 313.15 K | 0.00359
in 1,2-dichloroethane, 318.05 K | 0.00454
in 1,2-dichloroethane, 322.95 K | 0.00542
in 1,2-dichloroethane, 328.15 K | 0.00651
in 1,2-dichloroethane, 333.25 K | 0.00803
in 1,2-dichloroethane, 338.15 K | 0.00933
in acetone, 278.15 K | 0.00106
in acetone, 283.25 K | 0.00132
in acetone, 288.45 K | 0.0018
in acetone, 293.25 K | 0.0023
in acetone, 298.35 K | 0.0031
in acetone, 303.35 K | 0.00363
in acetone, 308.15 K | 0.00469
in acetone, 313.25 K | 0.00547
in acetone, 318.05 K | 0.00593
in acetone, 323.15 K | 0.00616
in acetonitrile, 283.25 K | 0.00144
in acetonitrile, 288.45 K | 0.00169
in acetonitrile, 293.35 K | 0.00198
in acetonitrile, 298.25 K | 0.00221
in acetonitrile, 303.25 K | 0.00268
in acetonitrile, 308.15 K | 0.00342
in acetonitrile, 313.35 K | 0.00392
in acetonitrile, 318.15 K | 0.0046
in acetonitrile, 323.05 K | 0.00562
in acetonitrile, 327.95 K | 0.00654
in acetonitrile, 333.05 K | 0.00866
in chloroform, 278.25 K | 0.0048
in chloroform, 283.35 K | 0.00547
in chloroform, 288.15 K | 0.00651
in chloroform, 293.05 K | 0.00768
in chloroform, 298.45 K | 0.00866
in chloroform, 303.35 K | 0.00944
in chloroform, 308.15 K | 0.0111
in chloroform, 313.05 K | 0.0128
in chloroform, 317.95 K | 0.0154
in chloroform, 323.15 K | 0.0188
in ethanol, 278.45 K | 0.00558
in ethanol, 283.25 K | 0.00618
in ethanol, 288.15 K | 0.0068
in ethanol, 293.25 K | 0.00786
in ethanol, 298.35 K | 0.00933
in ethanol, 303.05 K | 0.0106
in ethanol, 307.95 K | 0.0125
in ethanol, 313.05 K | 0.014
in ethanol, 318.15 K | 0.0169
in ethanol, 323.05 K | 0.0195
in ethanol, 327.95 K | 0.0239
in ethanol, 333.15 K | 0.0293
in ethanol, 338.05 K | 0.0327
in ethanol, 343.15 K | 0.0374
in ethyl acetate, 297.95 K | 0.00054
in ethyl acetate, 303.35 K | 0.00092
in ethyl acetate, 308.45 K | 0.00131
in ethyl acetate, 313.15 K | 0.00166
in ethyl acetate, 318.05 K | 0.00221
in ethyl acetate, 323.05 K | 0.0024
in ethyl acetate, 328.35 K | 0.00283
in ethyl acetate, 333.25 K | 0.00307
in ethyl acetate, 338.15 K | 0.00336
in ethyl acetate, 342.95 K | 0.0036
in methanol, 283.35 K | 0.0112
in methanol, 288.15 K | 0.0132
in methanol, 293.25 K | 0.0146
in methanol, 298.31 K | 0.0168
in methanol, 303.15 K | 0.0196
in methanol, 307.95 K | 0.0223
in methanol, 313.05 K | 0.0259
in methanol, 317.95 K | 0.0285
in methanol, 323.15 K | 0.0321
